According to patent US9144595B2, “APLs for treating arthritis” (University of Tennessee Research Foundation, priority 2009, dated 2015):
Where “and” joins values, the source holds several entries; their conditions need not be identical. Equal entries are not always repeated.

Experiments:
DR1 Transgenic mice [1] = test: Oral (gavage) APL A12 suppression of CIA in DR1 transgenic mice; format: in vivo, mouse; conditions: for arthritis severity: FIG. 1
RA PBMC = test: APL A12 inhibition of IFNγ production by α1(II)-stimulated RA PBMC; format: cell-based, human; conditions: for IFNy Stimulation Index: 144 h
Experimental: We assessed the ability of APL A12 added to cultures of PBMC to affect production of IFNγ and other Th1 and Th2 cytokines by the cultured PBMC stimulated with α1(II) from 18 RA patients, 16 of whom had known HLA DR B1 haplotypes. 16 of these patients were taking methothexate, 10 NSAIDS and 12 anti-TNF agents. One patient was taking Arava. Isolated PBMC were resuspended in Dulbecco's minimal essential medium containing penicillin (100 U/ml), streptomycin (100 μg/ml), 9% fetal calf serum (FCS), and non-essential amino acids thereafter referred to as “Complete Medium” at a concentration of 4×10^6 cells/ml. Aliquots (0.5 ml) of the cell suspension were dispensed into wells of 48 well tissue culture plates (NUNC, Roskilde, Denmark).

DR1 Transgenic mice [2] = test: Acute toxicity study of HC Peptide 1 in DR1 transgenic mice; format: in vivo, mouse; conditions: for Weight of Mice / Weight of Livers / Weight of Spleens: individual mice, HC Peptide 1 (100 μg) Fed; for Weight of Livers / Weight of Spleens: at sacrifice
Experimental: Eight DR1 transgenic mice (C57 BL/10 containing a human transgene for DR1) were studied in these acute toxicity studies. The four female litter mates were nine weeks old at the time the studies were initiated. Two female mice and two male mice were randomly assigned to the control group and two female and two male mice were randomly assigned to be treated with HC Peptide 1. Mice were gavaged once daily for seven days with 100 μl IV saline containing 100 μg HC Peptide1. Mice were weighed before treatment and every two days. Mice were examined daily for general healthy appearance, glossy coat, ruffling of hair, lethargy, ad lib behavior, shivering or vigor. At sacrifice on day 7, blood was collected for complete blood count and chemistries were performed by the Clinical Pathology Services, Charles River Laboratories, 251 Ballardvale Street, Wilmington, Mass. 01887. Food and water consumption were monitored in each cage. Liver and spleen were weighed at sacrifice of each mouse. Sections of liver, spleen, kidney, heart, lung, stomach, and small and large intestine, were placed in 10% formalin and processed for routine H and E sections by the Histology Laboratory at the Memphis VAMC. Mice were housed in an IACUC approved facility with 12 hours light and 12 hours darkness.
Changes in body weight over the six days mice were gavaged with 100× the human HC Peptide 1 dose were similar to mice gavaged with IV saline (See Table IX). Water and food consumption were similar between HC Peptide 1 treated and mice gavaged with IV saline (Table X). Upon sacrifice at day 7, the weight of livers and spleens were similar between mice gavaged with 100× the human dose of HC Peptide 1 and mice gavaged with IV saline (See Table XI). The complete blood counts (CBC) after 6 days gavage of DRB1*0401 transgenic mice with 100× the human HC Peptide 1 dose were similar to litter mates gavaged with IV saline. Plasma chemistries were similar in the […] transgenic mice gavaged with 100× the human dose of HC Peptide 1 compared to litter mates gavaged with IV saline.

[3] = tested on: Spleen tyrosine kinase (Syk); test: Syk phosphorylation in CD4+ T cells of DR1/TCR transgenic mice (flow cytometry); format: cell-based, mouse; conditions: APCs prepulsed with peptide, compared with media controls
Description: Since T cells clearly responded to A12 differently than to the wild type A2 peptide, we analyzed them for the possibility that they might be utilizing an alternative signaling pathway. Spleen tyrosine kinase (Syk), a kinase ordinarily utilized by B cells was selected for further analysis. In these experiments, CD4^+ T-cells from the DR1/TCR transgenic mice were purified by negative selection (using a Miltenyi kit) and stained with an antibody specific for phospho Syk following exposure to APCs prepulsed with either A2 or A12. […] Histograms were generated using flow cytometry with gating specifically on the CD4^+ population, confirming that the changes observed were produced by T-cells.
FIGS. 5A and 5B show T cell signaling induced by A2 and A12. Flow cytometry was performed using purified CD4+ T cells from spleens of DR1 TCR Tg mice. The T cells were stimulated by APCs pre-pulsed with A2, A12 or no peptide (Control) for 5 minutes. The cells were then fixed, permeabilized, and stained with an antibody specific for phospho-Syk (Tyr 323) (left panel) or phospho-ERK 1/2 (right panel) and analyzed by flow cytometry. Both plots are gated on CD4 T cells. Axes 510, 540, show the number of events and axes 515, 545 show a logarithmic scale for Anti-phospho Erk and Syk respectively, for FIGS. 5A and 5B. In FIG. 5A line 520 is for A2 peptide, line 525 is the control, and line 530 is the A12 peptide. […]

[4] = Cage 1 Male (two mice), Days 1-2
[5] = Cage 1 Male (two mice), Days 3-4
[6] = Cage 1 Male (two mice), Days 5-6
[7] = Cage 1 Male (two mice), sum of Days 1-6 (unlabelled line)
[8] = Cage 3 Female (two mice), Days 1-2
[9] = Cage 3 Female (two mice), Days 3-4
[10] = Cage 3 Female (two mice), Days 5-6
[11] = Cage 3 Female (two mice), sum of Days 1-6 (unlabelled line)

LGPKGQTGEBGIAGAKGDQGPKGEBGPA [APL A12] was tested, and the arthritis severity (DR1 Transgenic mice [1]; 10 μg gavaged 8 days over two weeks before CII immunization) was “significantly reduced”, the arthritis severity (DR1 Transgenic mice [1]; 50 μg gavaged 8 days over two weeks before CII immunization) was “significantly reduced” and the most effective dose (DR1 Transgenic mice [1]; given orally by gavage) was 50 µg/day. For the same sequence, the “development of arthritis induced by immunization with bovine CII” value (DR1 Transgenic mice [1]; low oral dose (10-50 μg), mice transgenic for human DR1) was “protects”, the CII induced arthritis (DR1 Transgenic mice [1]; mice bearing a transgene for human DR1) was “effective in reducing” and the “IFNγ production by RA PBMC” value (RA PBMC; APL A12 alone, without α1(II), data not shown) was “no change from PBS control”. For the same sequence, the “RA patients who responded to APL A12 in vitro” value (RA PBMC; NIH oral CII study) was 50%, the “patients with IFNγ production down-regulated by ≧50%” value (RA PBMC; patients with the RA susceptibility shared epitope) was 7 of 10 and the “patients with IFNγ production down-regulated by ≧50%” value (RA PBMC; patients without the shared epitopes) was 2 of 6. The “IFNy Stimulation Index” value (RA PBMC; α1(II) + APL A12 1 μg/ml, individual patients with No Shared Epitope) was 49 and 45 and 1120 and 928 and 586 and 75, the “IFNy Stimulation Index” value (RA PBMC; α1(II) + APL A12 1 μg/ml, individual patients with Shared Epitope) was 139 and 49 and 742 and 908 and 3190 and 85 and 203 and −65 and −74 and the “IFNy Stimulation Index” value (RA PBMC; α1(II) + APL A12 1 μg/ml, individual patients, HLA Unknown) was 42 and 228. The “IFNy Stimulation Index” value (RA PBMC; α1(II) + APL A12 10 μg/ml, individual patients with No Shared Epitope) was 12 and −3 and 1220 and 807 and 479 and 91, the “IFNy Stimulation Index” value (RA PBMC; α1(II) + APL A12 10 μg/ml, individual patients with Shared Epitope) was 291 and 68 and 37 and 1220 and 644 and 2111 and 93 and 110 and −54 and −66 and the “IFNy Stimulation Index” value (RA PBMC; α1(II) + APL A12 10 μg/ml, individual patients, HLA Unknown) was 73 and 180. The “IFNy Stimulation Index” value (RA PBMC; α1(II) + APL A12 25 μg/ml, individual patients with No Shared Epitope) was 16 and 50 and 934 and 778 and 357 and 106, the “IFNy Stimulation Index” value (RA PBMC; α1(II) + APL A12 25 μg/ml, individual patients with Shared Epitope) was 15 and 113 and 123 and 493 and 1350 and 2620 and 154 and 83 and −24 and 1 and the “IFNy Stimulation Index” value (RA PBMC; α1(II) + APL A12 25 μg/ml, individual patients, HLA Unknown) was 121 and 214. For the same sequence, the Plasma chemistries (DR1 Transgenic mice [2]; 100× the human dose vs IV saline) was “similar”, the “general appearance or behavior” value (DR1 Transgenic mice [2]; 100× the proposed highest human dose by gavage, compared to littermates gavaged with IV saline) was “no differences” and the “Chow Consumed” value (DR1 Transgenic mice [2]; [4]) was 13.3 GMS. For the same sequence, the “Water Consumed” value (DR1 Transgenic mice [2]; [4]) was 15 MI, the “Chow Consumed” value (DR1 Transgenic mice [2]; [5]) was 10.5 GMS and the “Water Consumed” value (DR1 Transgenic mice [2]; [5]) was 10 MI. For the same sequence, the “Chow Consumed” value (DR1 Transgenic mice [2]; [6]) was 14.4 GMS, the “Water Consumed” value (DR1 Transgenic mice [2]; [6]) was 15 MI and the “Chow Consumed” value (DR1 Transgenic mice [2]; [7]) was 38.2 GMS. For the same sequence, the “Water Consumed” value (DR1 Transgenic mice [2]; [7]) was 40 MI, the “Chow Consumed” value (DR1 Transgenic mice [2]; [8]) was 15.7 GMS and the “Water Consumed” value (DR1 Transgenic mice [2]; [8]) was 12.5 MI. For the same sequence, the “Chow Consumed” value (DR1 Transgenic mice [2]; [9]) was 14.2 GMS, the “Water Consumed” value (DR1 Transgenic mice [2]; [9]) was 9.5 MI and the “Chow Consumed” value (DR1 Transgenic mice [2]; [10]) was 15.3 GMS. For the same sequence, the “Water Consumed” value (DR1 Transgenic mice [2]; [10]) was 13 MI, the “Chow Consumed” value (DR1 Transgenic mice [2]; [11]) was 45.2 GMS and the “Water Consumed” value (DR1 Transgenic mice [2]; [11]) was 35 MI. For the same sequence, the “Weight of Mice” value (DR1 Transgenic mice [2]; Day 2, female mice) was 21.6 GMS and 19.4 GMS, the “Weight of Mice” value (DR1 Transgenic mice [2]; Day 2, male mice) was 22.4 GMS and 21.0 GMS and the “Weight of Mice” value (DR1 Transgenic mice [2]; Day 4, female mice) was 21.0 GMS and 18.6 GMS. For the same sequence, the “Weight of Mice” value (DR1 Transgenic mice [2]; Day 4, male mice) was 21.6 GMS and 20.3 GMS, the “Weight of Mice” value (DR1 Transgenic mice [2]; Day 6, female mice) was 21.9 GMS and 19.3 GMS and the “Weight of Mice” value (DR1 Transgenic mice [2]; Day 6, male mice) was 22.7 GMS and 20.9 GMS. The “Weight of Mice” value (DR1 Transgenic mice [2]; Time 0, female mice) was 21.6 GMS and 18.7 GMS, the “Weight of Mice” value (DR1 Transgenic mice [2]; Time 0, male mice) was 22.4 GMS and 20.8 GMS and the “Weight of Livers” value (DR1 Transgenic mice [2]; female mice) was 0.99 GMS and 0.87 GMS. The “Weight of Spleens” value (DR1 Transgenic mice [2]; female mice) was 0.065 GMS and 0.07 GMS, the “Weight of Livers” value (DR1 Transgenic mice [2]; male mice) was 1.14 GMS and 0.9 GMS and the “Weight of Spleens” value (DR1 Transgenic mice [2]; male mice) was 0.09 GMS and 0.06 GMS. The “weight of livers and spleens” value (DR1 Transgenic mice [2]; sacrifice at day 7, 100× the human dose vs IV saline) was “similar”, the “Water and food consumption” value (DR1 Transgenic mice [2]; vs mice gavaged with IV saline) was “similar” and the Syk phosphorylation [3] was “induced significant Syk phosphorylation”.
